Measurements published in PubChem BioAssay AID179 (DTP/NCI, 2004).
Activity calls are given as the source filed them.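 The calls were made as follows: active = compounds giving half or more protection of infected cells from virus-caused growth loss, again on retest; inactive = the rest.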

Test system: CEM cells HIV-1 protection, formazan growth assay
Experiment: NCI AIDS Antiviral Assay
Details: for IC50: measured here: growth of uninfected CEM cells
Summary of the method: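 Protection of CEM cells against HIV-1 measured as cell growth via soluble formazan read-out, with five concentrations tested on both infected and uninfected cells; failure to protect may reflect toxicity.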

Compound | EC50 | IC50 | outcome
COc1ccc(/C(CCl)=C(\Nc2ccccc2)c2ccc(OC)c(OC)c2)cc1OC | > 200 µM | > 200 µM | 
C[n+]1c2ccccc2c(NCC(=O)O)c2ccccc21 |  |  | inactive
CCCCOC(=O)NC(Nc1cccc(C(F)(F)F)c1)(C(F)(F)F)C(F)(F)F | > 200 µM | 50.1 µM | 
S=c1n(-c2ccc(Cl)cc2)c2/c(=N\Nc3cc(Cl)ccc3Cl)c(n1-c1ccccn1)=NCCN=2 | > 200 µM | > 200 µM | 
CCOC(=O)c1sc2c(c1OC(=O)c1ccccc1)c(=O)n(-c1ccccc1)c(=S)n2-c1ccccc1 | > 200 µM | 132 µM | 
O=C(NCCCn1ccnc1[N+](=O)[O-])C(=O)NCCCn1ccnc1[N+](=O)[O-] | > 200 µM | > 200 µM | 
n1onc2c1NC1Nc3nonc3NC1N2 (centres undefined) | > 200 µM | > 200 µM | 
O=C1C(=Cc2cccs2)C(=O)N(CCc2ccccc2)S(=O)(=O)N1CCc1ccccc1 | > 8.13 µM | > 8.13 µM | 
O=C(O)CCC(=O)c1ccc2oc3ccccc3c2c1 | > 200 µM | > 200 µM | 
COc1ccc(N2C(=O)C3c4[nH]c5ccc(C)cc5c4C4CCC(C)CC4C3C2=O)cc1 (centres undefined) | > 100 µM | > 100 µM | 
COc1ccc(/C=C(\C#N)c2ccccc2)cc1 | > 8.51 µM | 6.31 µM | 
C=C(C)C1Cc2c(cc(OC)c3c(=O)c4ccccc4n(C)c23)O1 (centres undefined) | > 22.4 µM | > 22.4 µM | 
C[C@]12CC[C@H](O)C[C@@H]1CC[C@@H]1[C@@H]2CC[C@]2(C)c3nc4ccccc4cc3C[C@@H]12 | > 200 µM | 8.13 µM | 
ClC(Cl)=C(Cl)C1(Cl)CC1COCc1ccccc1 (centres undefined) | > 30.9 µM | 24.5 µM | 
COc1ccc2nc(NC(=O)/C(C#N)=C/c3ccccc3)sc2c1 | > 200 µM | 12 µM | 
COc1cccc(C2(C#N)CCN(C)CC2)c1 | > 1070 µM | 537 µM | 
C=C(C)CC(OC(=O)C(C)(C)C)c1ccccc1 (centres undefined) |  |  | inactive
CC(=O)Oc1ccc2c(-c3ccccc3)c(Oc3ccc(Cl)cc3)c(=O)oc2c1 | > 200 µM | 15.8 µM | 
O=CC1=CCC2c3[nH]c4ccccc4c3CCN2C1 (centres undefined) | > 372 µM | 41.7 µM | 
CC(C)c1cccc2sc(NC(=O)C(=O)CC(=O)c3ccc(F)cc3)nc12 |  |  | inactive
Cc1ccc(S(=O)(=O)N(C)CC(=O)c2ccccc2)cc1 | > 117 µM | > 117 µM | 
Cc1c(Cl)nc(Nc2nc3ccccc3[nH]2)nc1Cl |  |  | inactive
COc1ccc2c(c1)nc1n2C(c2c(Cl)cccc2Cl)SC1 (centres undefined) | > 200 µM | 33.1 µM | 

Compound | EC50 | IC50 | outcome
C=C(C)CCC1C=[N+]([O-])OC(C)(C)C1(C)C (centres undefined) | > 200 µM | 107 µM | 
O=C(O)C1CC2=C(CN1)Cc1ccccc12 (centres undefined) | > 9.33 µM | > 9.33 µM | 
CC1CCSC(N(C(=O)N(C)c2ccccc2)c2ccccc2)=N1 (centres undefined) | > 741 µM | 724 µM | 
COC(=O)N/N=C(\C)C(CN(C)C)C(c1ccccc1)c1c(O)c2ccccc2oc1=O (centres undefined) | > 28.8 µM | > 28.8 µM | 
O=C1C2=Cc3ccccc3OC2(O)Oc2cc(O)cc(O)c21 (centres undefined) | > 200 µM | 91.2 µM | 
COc1cc(/C=C2\C=Cc3ccccc32)cc(OC)c1OC | > 24.5 µM | > 24.5 µM | 
CN(C)c1nc(Oc2nc(N(C)C)nc(N(C)C)n2)nc(N(C)C)n1 | > 724 µM | 17.4 µM | 
CN(C)C(=NCc1ccccc1)NC#N | > 1230 µM | > 1230 µM | 
CC1=C(C(=O)Nc2ccc([N+](=O)[O-])cc2)C(c2ccc(N(C)C)cc2)C(C(=O)Nc2ccc([N+](=O)[O-])cc2)=C(C)N1 | > 17.8 µM | > 17.8 µM | 
CCCCCCCCCCCCNC1(C)CNCCCNCCNCCCNC1 | > 251 µM | 1.41 µM | 
ClC(Cl)(Cl)C1CCOC1n1nc2ccccc2n1 (centres undefined) | > 200 µM | > 200 µM | 
C1CCC2(CC1)CCN(CCCN1CCOCC1)CC2 |  |  | inactive
Cc1ccc(S(=O)(=O)N2CCN(C=S)CC2)cc1 | > 91.2 µM | > 91.2 µM | 
CNc1cc(Cl)ccc1C(=O)N1CCC[C@H]1CO | > 200 µM | 191 µM | 
COc1cc2c3c(c1)SC(c1ccccc1)C(=O)N3CCN2 (centres undefined) | > 200 µM | 14.1 µM | 
C1CSCCSCCCSCCSCCCSCCSC1 | > 200 µM | > 200 µM | 
Clc1ccc(C=Nc2ccc(Oc3ccc(Cl)cc3)c(Cl)c2)cc1 | > 200 µM | 33.1 µM | 
COc1cc(C(=O)C/C(CCC(=O)Nc2ccc(Cl)cc2Cl)=N/Nc2nnc(C)n2N)ccc1O | > 50.1 µM | > 50.1 µM | 
N#C/C(=C/N1C(=O)CC(=O)NC1=S)c1cccc(Cl)c1 | 182 µM | > 200 µM | 
O=C(O)CCSc1nnc(COc2ccc(Cl)cc2)n1-c1ccccc1 | > 200 µM | 67.6 µM | 
O=C1c2ccccc2C(=O)C2C1C1C(=O)c3ccccc3C(=O)C21 (centres undefined) |  |  | inactive
Cc1ccc(N2CCc3c(C)c(C#N)c4nc5ccccc5n4c32)cc1 | > 200 µM | > 200 µM | 
ClB1NB(Cl)NB(Cl)N1 | > 138 µM | > 138 µM | 

Compound | EC50 | IC50 | outcome
COC1(OC)C=CC2C1C1C=CC2C1(OC)OC (centres undefined) | > 200 µM | > 200 µM | 
N#Cc1c(N=C/C=C/c2ccccc2)c(C(=O)Nc2ccccc2)n2c1CCC2 | > 200 µM | > 200 µM | 
COc1nc(C(=O)NNC(=O)c2nc(OC)c3ccccc3c2-c2ccccc2)c(-c2ccccc2)c2ccccc12 |  |  | inactive
CC12CCCCC1=C(F)C(F)(F)S2 (centres undefined) | > 200 µM | 115 µM | 
O=[N+]([O-])c1ccc2[nH]c(=S)[nH]c(=S)c2c1 | > 200 µM |  | 
O=[N+]([O-])c1ccc2[nH]ncc2c1Cl | > 200 µM | 9.77 µM | 
CCN(CCCN(CC)C(=O)Nc1c(C)cccc1C)C(=O)Nc1c(C)cccc1C | > 200 µM | > 200 µM | 
Cc1ccc(NC(=S)N/N=C(/c2ccccc2)c2ccccn2)cc1 | > 0.2 µM | 0.105 µM | 
COC(=O)C(C(=O)C(=O)Nc1cccc(O)c1)c1nc2ccc(Cl)cc2[nH]c1=O (centres undefined) | > 87.1 µM | 85.1 µM | 
CC(=O)NC1C(OCc2ccccc2)OC(CO)C(O)C1OCC(=O)NC(C)C(=O)NC(CCC(=O)NCCCCNc1ccc([N+](=O)[O-])c2[nH]c3ccccc3c(=O)c12)C(N)=O (centres undefined) | 81.3 µM | > 100 µM | 
Cc1ccccc1C1N=C2Oc3ccccc3C=C2C(=O)N1 (centres undefined) | > 100 µM | 1.41 µM | 
ClCc1nn(-c2ccccc2)c(CCl)c1CCl | > 200 µM | 1.23 µM | 
O=C(OCC(OC(=O)c1ccccc1)C1CC(C(O)C2CCCCC2)C(=O)O1)c1ccccc1 (centres undefined) | > 200 µM | 21.9 µM | 
COc1ccc2c(c1)N(CC(C)CN(C)C)c1ccccc1S2 (centres undefined) | > 200 µM | > 200 µM | 
COC(c1cccc(C(O)(C(F)(F)F)C(F)(F)F)c1)(C(F)(F)F)C(F)(F)F |  |  | inactive
Cc1c(Cc2ccccc2)n(C(C)OCCN2C(=O)C=CC2=O)c(=O)[nH]c1=O (centres undefined) | > 200 µM | 9.77 µM | 
CCOC(=O)C1=C(C)N2CCCOC2(C)C(C(=O)OC)C1c1cccc([N+](=O)[O-])c1 (centres undefined) | > 200 µM | 69.2 µM | 
CCCCCNP1(NCCCCC)=NP(NCCCCC)(NCCCCC)=NP(NCCCCC)(NCCCCC)=NP(NCCCCC)(NCCCCC)=N1 | > 50.1 µM | > 50.1 µM | 
CCOc1cc(N=Nc2cc(Cl)c(S(=O)(=O)O)cc2Cl)c2cc(S(=O)(=O)O)ccc2c1N=Nc1c(S(=O)(=O)O)cc2cc(NC(=O)c3ccc(N)cc3)ccc2c1O |  |  | active
C/C=C/C=Nc1c(C#N)c2n(c1C(=O)Nc1ccc(Cl)cc1)CCC2 | > 50.1 µM | 23.4 µM | 
Cc1c(CC/C(=N\Nc2ccc([N+](=O)[O-])cc2[N+](=O)[O-])c2ccccc2)c2ccccc2n1C |  |  | inactive
Cc1cc(=O)oc2cc(OCc3nc4ccccc4c(=O)[nH]3)ccc12 | > 107 µM | > 107 µM | 
Cc1ccn2c(N=O)c(-c3ccccc3)nc2c1 | 135 µM | > 200 µM | 

Compound | EC50 | IC50 | outcome
C=CCc1cc(OC)c2c(c1)C(OC(C)=O)CC(c1ccc(OC)c(OC)c1)O2 (centres undefined) | > 46.8 µM | > 46.8 µM | 
CC1CCC2C(C)C(=O)OC3OC4(C)CCC1C32OO4 (centres undefined) | > 457 µM | 288 µM | 
O=C1Cc2cccc(=O)c(O)c2C(=O)O1 | > 1200 µM | 282 µM | 
COc1ccc(-c2coc3c4c(ccc3c2=O)OCO4)cc1OC |  |  | inactive
OC1CC(O)O[C@H](c2ccccc2)C1 (some centres undefined) |  |  | inactive
CC1=N/C(=C\c2ccc(-c3ccccc3)cc2)C(=O)O1 | > 20 µM | > 20 µM | 
NS(=O)(=O)c1cc2c(cc1Cl)NC=NS2(=O)=O | > 851 µM | > 851 µM | 
COc1cc(CSc2ccc(O)cc2)cc(OC)c1OC | > 200 µM | 33.1 µM | 
COc1cc(-c2ccc(Br)[nH]2)[nH]c1C=NCC(C)C | > 200 µM | 10.5 µM | 
O=C1c2ccccc2C2(O)c3cc4ccccc4cc3OC12O (centres undefined) | > 589 µM | 44.7 µM | 
COc1cccc(NCC(=O)Nn2c(-c3ccccc3)nc3ccccc3c2=O)c1 | > 200 µM | 112 µM | 
O=C(NCCC1([N+](=O)[O-])CCN(C(=O)c2ccccc2)CC1)c1ccccc1 |  |  | inactive
N#C/C(=C/c1ccc([N+](=O)[O-])o1)c1ccccc1 | > 1050 µM | 61.7 µM | 
N#CC1=C(N)N(/N=C/c2ccccc2)C(c2ccccc2)C1(C#N)C#N (centres undefined) | > 200 µM | 3.89 µM | 
CC(=O)CC(C)=O.CC(=O)CC(C)=O.[O]=[V] |  |  | inactive
O=C(/C=C/c1ccc(Br)cc1)c1ccc(NCc2nc3ccccc3[nH]2)cc1 | > 16.6 µM | 11.5 µM | 
COC(=O)c1cc2cc3c(c(O)c2c(=O)o1)O[C@@]1(Oc2c(O)c4c(c(O)c2[C@H]1OC1CC(OC)C(O)C(C)O1)C(=O)C=C(OC)C4=O)[C@H](O)C3 (some centres undefined) | > 200 µM | 3.31 µM | 
O=C(/C(=C(/Br)I)c1ccccc1)c1ccccc1 | > 200 µM | 27.5 µM | 
O=C(Nc1nc(C23CC4CC(CC(C4)C2)C3)cs1)c1cc2cc(Cl)ccc2oc1=O | > 200 µM | > 200 µM | 
Cc1cccc(C2SCc3nc4ccccc4n32)c1 (centres undefined) |  |  | inactive
COc1cc2c(cc1OC)C(CC(=O)NN=C(C)C)NCC2 (centres undefined) | > 813 µM | > 813 µM | 
